Test results taken from US9955691B2, “Macrocyclic picolinamides as fungicides” (DOW AGROSCIENCES LLC, priority 2014, dated 2018).
Read-outs that look alike come from different tables or passages of the source.

Columns and labels:
[1] = tested on: Mycosphaerella graminicola; Anamorph: Septoria tritici; assay: Fungicidal activity: Leaf Blotch of Wheat (SEPTTR); type: in vivo; conditions: Zymoseptoria tritici, wheat leaf blotch; for pest or weed control at 121.5 g/ha: Low Volume (121.5 g/H); for pest or weed control at 100 µg/mL: High Volume (100 ppm)
Summary of the method: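 Compounds were dissolved in acetone, diluted with nine volumes of water containing 110 ppm Triton X-100, and sprayed to run-off on first-leaf Yuma wheat seedlings inoculated with Septoria tritici spores before or after treatment. Plants were held in a dew chamber, then a 20° C. greenhouse. Percent control was derived from disease severity relative to untreated plants.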

[2] = tested on: Puccinia triticina; assay: Fungicidal activity: Wheat Brown Rust (PUCCRT); type: in vivo; conditions: for pest or weed control at 121.5 g/ha: Low Volume (121.5 g/H); for pest or weed control at 100 µg/mL: High Volume (100 ppm)
Summary of the method: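 Wheat seedlings (Yuma, first leaf) sprayed to run-off with compound in acetone/water with Triton X-100, inoculated with Puccinia triticina before or after treatment. Held overnight in dark dew at 22° C, then greenhouse at 24° C; percent disease control from severity versus untreated plants.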

[3] = 24 h, 1 Day Protectant, read-out: SEPTTR 1 DP disease control
[4] = 72 h, 3 Day Curative, read-out: SEPTTR 3 DC disease control
[5] = 24 h, 1 Day Protectant, read-out: PUCCRT 1 DP disease control
[6] = 72 h, 3 Day Curative, read-out: PUCCRT 3 DC disease control

SMILES | melting point [°C] | pest or weed control at 121.5 g/ha [1, 3] [%] | pest or weed control at 121.5 g/ha [1, 4] [%] | pest or weed control at 121.5 g/ha [2, 5] [%] | pest or weed control at 121.5 g/ha [2, 6] [%] | pest or weed control at 100 µg/mL [1, 3] [%] | pest or weed control at 100 µg/mL [1, 4] [%] | pest or weed control at 100 µg/mL [2, 5] [%] | pest or weed control at 100 µg/mL [2, 6] [%]
COc1ccnc(C(=O)N[C@H]2COC[C@H](Cc3ccc(Cl)cc3)[C@@H](C3CCCC3)[C@H](C)OC2=O)c1OC(C)=O [compound 86] | 85 to 89 | > 70 | > 70 | > 70 | > 70 |  |  |  | 
COc1ccnc(C(=O)N[C@H]2COC[C@H](CCC(C)C)[C@@H](C3CCCC3)[C@H](C)OC2=O)c1OC(=O)C(C)C [compound 92, 2-(((3S,7R,8R,9S)-8-cyclopentyl-7-isopentyl-9-methyl-2-oxo-1,5-dioxonan-3-yl)carbamoyl)-4-methoxypyridin-3-yl isobutyrate] | 47 to 51 | > 70 | > 70 | > 70 | > 70 |  |  |  | 
COc1ccnc(C(=O)N[C@H]2COC[C@H](CC3CC3)[C@@H](Cc3ccccc3)[C@H](C)OC2=O)c1OCOC(C)=O [compound 68] | 41 to 45 | > 70 | < 70 | > 70 | < 70 |  |  |  | 
COc1ccnc(C(=O)N[C@H]2COC[C@H](CCC(C)C)[C@@H](C3CCCC3)[C@H](C)OC2=O)c1O [compound 150] | 38 to 43 |  |  |  |  | > 70 | > 70 | > 70 | > 70
COc1ccnc(C(=O)N[C@H]2COC[C@H](Cc3ccc(C(F)(F)F)cc3)[C@@H](CC(C)C)[C@H](C)OC2=O)c1OCOC(C)=O [compound 71] | 54 to 59 | > 70 | > 70 | > 70 | > 70 |  |  |  | 
COc1ccnc(C(=O)N[C@H]2COC[C@H](Cc3ccc(C(F)(F)F)cc3)[C@@H](CC(C)C)[C@H](C)OC2=O)c1OC(C)=O [compound 72] | 75 to 79 | > 70 | > 70 | > 70 | > 70 |  |  |  | 
C=C[C@@H]1[C@@H](Cc2ccccc2)COC[C@H](NC(=O)c2nccc(OC)c2OCOC(C)=O)C(=O)O[C@H]1C [compound 9] | 42 to 48 |  |  |  |  | > 70 | > 70 | > 70 | > 70
COc1ccnc(C(=O)N[C@H]2COC[C@H](Cc3ccc(Cl)cc3)[C@@H](Cc3ccc(OC(F)(F)F)cc3)[C@H](C)OC2=O)c1O [compound 137] | 64 to 68 |  |  |  |  | < 70 | > 70 | > 70 | < 70

Continued, in another order:

melting point [°C] | SMILES | pest or weed control at 121.5 g/ha [1, 3] [%] | pest or weed control at 121.5 g/ha [1, 4] [%] | pest or weed control at 121.5 g/ha [2, 5] [%] | pest or weed control at 121.5 g/ha [2, 6] [%] | pest or weed control at 100 µg/mL [1, 3] [%] | pest or weed control at 100 µg/mL [1, 4] [%] | pest or weed control at 100 µg/mL [2, 5] [%] | pest or weed control at 100 µg/mL [2, 6] [%]
70 to 74 | COc1ccnc(C(=O)N[C@H]2COC[C@H](Cc3ccccc3)[C@@H](COc3ccccc3)[C@H](C)OC2=O)c1OC(C)=O [compound 95, 2-(((3S,7R,8S,9S)-7-benzyl-9-methyl-2-oxo-8-(phenoxymethyl)-1,5-dioxonan-3-yl)carbamoyl)-4-methoxypyridin-3-yl acetate] | > 70 | > 70 | > 70 | > 70 |  |  |  | 
37 to 40 | COc1ccnc(C(=O)N[C@H]2COC[C@H](CCCc3ccccc3)[C@@H](CCc3ccccc3)[C@H](C)OC2=O)c1OCOC(C)=O [compound 67] | < 70 | < 70 | < 70 | < 70 |  |  |  | 
125 to 128 | COc1ccnc(C(=O)N[C@H]2COC[C@H](CC3CC3)[C@@H](Cc3ccccc3)[C@H](C)OC2=O)c1OC(C)=O [compound 69] | > 70 | > 70 | > 70 | > 70 |  |  |  | 
48 to 52 | COc1ccnc(C(=O)N[C@H]2COC[C@H](CCCc3ccccc3)[C@@H](CCc3ccccc3)[C@H](C)OC2=O)c1O [compound 139] |  |  |  |  | < 70 | < 70 | > 70 | < 70
